Series [1] concerns Plasmodium falciparum. Nature of the series: Antimalarial activity against erythrocyte asexual stage Plasmodium falciparum 3D7 0087/N9 infected in humanized SCID mouse model assessed as inhibition of maturation of trophozoites to schizonts at first life cycle at 1 to 30 mg/kg administered once daily measured after 48 hrs. Format: functional, organism-based. The settings on record: dose 1-30 mg/kg.

Series [2] deals with T1, Dihydroorotate dehydrogenase (quinone), mitochondrial (Plasmodium falciparum (isolate 3D7), UniProt Q08210).
T1 sequence (Q08210 whole entry): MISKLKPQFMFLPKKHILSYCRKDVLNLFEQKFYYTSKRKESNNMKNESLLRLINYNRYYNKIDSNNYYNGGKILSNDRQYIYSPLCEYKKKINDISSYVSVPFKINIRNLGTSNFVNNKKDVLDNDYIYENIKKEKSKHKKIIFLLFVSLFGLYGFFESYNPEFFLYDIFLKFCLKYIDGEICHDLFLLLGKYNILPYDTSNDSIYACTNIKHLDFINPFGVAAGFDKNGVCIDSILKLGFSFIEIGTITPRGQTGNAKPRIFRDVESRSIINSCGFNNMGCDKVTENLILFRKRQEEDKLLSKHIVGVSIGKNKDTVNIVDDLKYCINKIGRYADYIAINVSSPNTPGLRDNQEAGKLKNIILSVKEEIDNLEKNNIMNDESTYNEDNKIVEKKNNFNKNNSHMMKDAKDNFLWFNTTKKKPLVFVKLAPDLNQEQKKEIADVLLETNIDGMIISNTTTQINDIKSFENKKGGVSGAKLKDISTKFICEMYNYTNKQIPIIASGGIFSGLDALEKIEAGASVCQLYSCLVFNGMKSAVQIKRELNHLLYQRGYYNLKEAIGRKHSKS
Nature of the series: Inhibition of N-terminal His6-tagged recombinant Plasmodium falciparum DHODH (158 to 569 residues) N-terminally truncated soluble domain extracted from Escherichia coli phage resistant BL21-DE3 using CoQD/DHA/DCIP as substrates.

Series [3] has as its system Plasmodium falciparum. Nature of the series: Antimalarial activity against erythrocyte asexual stage Plasmodium falciparum 3D7 0087/N9 infected in humanized SCID mouse model assessed as elimination of trophozoites at second life cycle at 1 to 30 mg/kg administered once daily measured for 48 to 96 hrs. The series is classed as functional, organism-based. The settings on record: dose 1-30 mg/kg, time lower […], time upper […].

Series [4] concerns Plasmodium falciparum. Kind of series: Prevention of terminal maturation of schizonts in humanized SCID mouse model infected with erythrocyte asexual stage Plasmodium falciparum 3D7 0087/N9 at 1 to 30 mg/kg administered once daily for 6 days. The series is classed as functional, organism-based. The settings on record: dose 1-30 mg/kg, time 6.0 day.
In series [5] the target is T2, Cytochrome P450 2B6 (Homo sapiens, UniProt P20813).
T2 sequence (P20813 whole entry): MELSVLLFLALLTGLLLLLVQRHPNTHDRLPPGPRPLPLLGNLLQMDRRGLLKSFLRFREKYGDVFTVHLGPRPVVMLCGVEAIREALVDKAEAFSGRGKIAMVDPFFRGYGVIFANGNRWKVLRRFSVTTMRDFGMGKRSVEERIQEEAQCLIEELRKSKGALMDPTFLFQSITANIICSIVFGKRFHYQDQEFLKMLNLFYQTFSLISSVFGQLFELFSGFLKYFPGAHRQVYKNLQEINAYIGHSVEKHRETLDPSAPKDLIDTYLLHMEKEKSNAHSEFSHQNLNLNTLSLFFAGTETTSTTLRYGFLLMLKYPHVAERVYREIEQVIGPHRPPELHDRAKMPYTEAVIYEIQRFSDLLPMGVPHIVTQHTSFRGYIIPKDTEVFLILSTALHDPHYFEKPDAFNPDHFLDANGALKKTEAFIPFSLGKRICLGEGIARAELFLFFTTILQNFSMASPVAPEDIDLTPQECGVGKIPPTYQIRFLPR
Nature of the series: Time-dependent inhibition of CYP2B6 in human liver microsomes. The series is classed as ADME, Microsome. For orientation: Liver microsomes are vesicles of endoplasmic reticulum, rich in cytochrome P450 enzymes.

The nature of series [6]: Plasma protein binding in rat measured for 6 hrs by rapid equilibrium dialysis. The series is classed as ADME, cell-free. For orientation: In equilibrium dialysis free small molecules cross a membrane that holds back macromolecules.
Series [7] in a line: Oral absorption in overnight-fasted male Sprague-Dawley rat at 3 mg/kg measured upto 72 hrs by LCMS analysis. Particulars: in vivo. Format: ADME, organism-based.
Series [8] addresses Albumin (Homo sapiens, UniProt P02768). Nature of the series: Protein binding to albumin (unknown origin) in ALBUMAX medium. The settings on record: read-out: PB (converted). The series is classed as ADME.
A short description of series [9]: Oral bioavailability in overnight-fasted male Sprague-Dawley rat at 3 mg/kg measured upto 72 hrs by LCMS analysis. Format: ADME, organism-based. The settings on record: in vivo.
Series [10] has as its target Voltage-gated inwardly rectifying potassium channel KCNH2 (Homo sapiens, UniProt Q12809). Nature of the series: Inhibition of hERG expressed in CHO cells by whole-cell patch-clamp assay. The series is classed as toxicity, cell-based. (The hERG channel carries a current that helps repolarise heart muscle cells.)
The target in series [11] is T3, Cytochrome P450 1A2 (Homo sapiens, UniProt P05177).
T3 sequence (P05177 whole entry): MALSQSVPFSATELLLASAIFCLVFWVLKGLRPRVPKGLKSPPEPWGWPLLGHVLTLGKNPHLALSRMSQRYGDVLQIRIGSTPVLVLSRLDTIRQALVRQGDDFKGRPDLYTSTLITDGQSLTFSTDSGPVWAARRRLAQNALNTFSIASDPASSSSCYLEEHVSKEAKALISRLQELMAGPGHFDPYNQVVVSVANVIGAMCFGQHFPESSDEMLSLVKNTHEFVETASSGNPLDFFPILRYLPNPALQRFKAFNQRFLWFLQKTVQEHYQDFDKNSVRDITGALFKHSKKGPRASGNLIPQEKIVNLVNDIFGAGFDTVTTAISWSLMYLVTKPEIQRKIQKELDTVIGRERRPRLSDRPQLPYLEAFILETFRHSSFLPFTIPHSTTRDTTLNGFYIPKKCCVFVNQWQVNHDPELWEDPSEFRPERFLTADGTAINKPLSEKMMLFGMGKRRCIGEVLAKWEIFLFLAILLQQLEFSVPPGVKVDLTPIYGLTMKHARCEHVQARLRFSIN
Kind of series: Time-dependent inhibition of CYP1A2 in human liver microsomes. Format: ADME, Microsome.

Series [12] is described as follows: Cytotoxicity against human Jurkat cells by Cell Titer Glo assay. Format: toxicity, cell-based.
The target in series [13] is Cytochrome P450 3A4 (Homo sapiens, UniProt P08684). Kind of series: Inhibition of CYP3A4 in human liver microsomes. Format: ADME, Microsome.
Series [14] in a line: Plasma protein binding in human measured for 6 hrs by rapid equilibrium dialysis. The series is classed as ADME, cell-free.
A short description of series [15]: Kinetic solubility of compound at pH 6.5 measured after 30 mins by nephelometry. Particulars: buffer, pH 6.5, read-out: Kinetic_solubility. The series is classed as physicochemical.
For series [16], the system named is Plasmodium falciparum. Kind of series: Antiparasitic activity against asexual blood stage Plasmodium falciparum 3D7 incubated for 72 hrs by SYBR Green assay. The series is classed as functional, organism-based. Particulars: 3D7, 72 h.
In series [17] the target is Cytochrome P450 2D6 (Homo sapiens, UniProt P10635). Nature of the series: Time-dependent inhibition of CYP2D6 in human liver microsomes. Format: ADME, Microsome.
A short description of series [18]: Metabolic stability in human liver microsomes assessed as intrinsic clearance at 0.5 uM incubated for 60 mins in presence of NADPH by tandem quadrupole-Time of Flight MS. Particulars: 1 h. The series is classed as ADME, Microsome.
The target in series [19] is Cytochrome P450 2C9 (Homo sapiens, UniProt P11712). Nature of the series: Time-dependent inhibition of CYP2C9 in human liver microsomes. Format: ADME, Microsome.
The test system of series [20] is Plasmodium falciparum. Nature of the series: Prevention of pyknosis of rings in humanized SCID mouse model infected with erythrocyte asexual stage Plasmodium falciparum 3D7 0087/N9 at 1 to 30 mg/kg administered once daily for 6 days measured after 96 to […] post-dose. Format: functional, organism-based. The settings on record: dose 1-30 mg/kg, time 6.0 day.
Series [21] addresses T2, Cytochrome P450 2B6. Nature of the series: Inhibition of CYP2B6 in human liver microsomes. Format: ADME, Microsome.

Molecules are shown by their SMILES. Converted amounts (≈) assume the structure as drawn. The source made the active and inactive calls. The calls are words filed in the database; no cut-off is given here. A value given as a limit tells only on which side of the number the result lay.

Sequence of Cytochrome P450 2C9 (P11712 whole entry): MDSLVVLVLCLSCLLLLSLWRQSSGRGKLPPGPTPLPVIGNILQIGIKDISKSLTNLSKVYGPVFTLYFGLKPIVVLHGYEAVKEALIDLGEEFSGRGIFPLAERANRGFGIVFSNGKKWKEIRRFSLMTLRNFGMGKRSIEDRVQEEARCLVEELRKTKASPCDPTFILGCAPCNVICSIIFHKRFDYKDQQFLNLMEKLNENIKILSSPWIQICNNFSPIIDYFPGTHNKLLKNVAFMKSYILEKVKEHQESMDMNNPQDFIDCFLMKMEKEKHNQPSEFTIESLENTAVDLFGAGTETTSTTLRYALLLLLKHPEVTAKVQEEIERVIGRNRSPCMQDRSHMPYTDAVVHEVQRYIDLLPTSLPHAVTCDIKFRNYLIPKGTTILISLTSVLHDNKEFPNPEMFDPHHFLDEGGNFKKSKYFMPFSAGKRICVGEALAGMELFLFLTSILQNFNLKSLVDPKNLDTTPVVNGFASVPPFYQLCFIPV
Sequence of Cytochrome P450 2D6 (P10635 whole entry): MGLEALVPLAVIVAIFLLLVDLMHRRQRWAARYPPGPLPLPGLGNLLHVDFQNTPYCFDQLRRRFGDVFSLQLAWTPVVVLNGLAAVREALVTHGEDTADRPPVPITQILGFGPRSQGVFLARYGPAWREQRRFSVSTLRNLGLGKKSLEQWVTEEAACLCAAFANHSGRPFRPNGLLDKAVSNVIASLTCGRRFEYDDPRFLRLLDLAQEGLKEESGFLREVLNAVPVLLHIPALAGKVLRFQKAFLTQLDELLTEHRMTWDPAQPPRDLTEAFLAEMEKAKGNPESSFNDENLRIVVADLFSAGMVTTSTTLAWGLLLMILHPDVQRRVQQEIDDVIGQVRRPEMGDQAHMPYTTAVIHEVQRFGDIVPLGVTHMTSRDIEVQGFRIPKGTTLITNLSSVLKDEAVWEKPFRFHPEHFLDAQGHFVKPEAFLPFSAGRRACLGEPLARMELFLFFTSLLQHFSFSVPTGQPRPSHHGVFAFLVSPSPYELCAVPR
Sequence of Albumin (P02768 whole entry): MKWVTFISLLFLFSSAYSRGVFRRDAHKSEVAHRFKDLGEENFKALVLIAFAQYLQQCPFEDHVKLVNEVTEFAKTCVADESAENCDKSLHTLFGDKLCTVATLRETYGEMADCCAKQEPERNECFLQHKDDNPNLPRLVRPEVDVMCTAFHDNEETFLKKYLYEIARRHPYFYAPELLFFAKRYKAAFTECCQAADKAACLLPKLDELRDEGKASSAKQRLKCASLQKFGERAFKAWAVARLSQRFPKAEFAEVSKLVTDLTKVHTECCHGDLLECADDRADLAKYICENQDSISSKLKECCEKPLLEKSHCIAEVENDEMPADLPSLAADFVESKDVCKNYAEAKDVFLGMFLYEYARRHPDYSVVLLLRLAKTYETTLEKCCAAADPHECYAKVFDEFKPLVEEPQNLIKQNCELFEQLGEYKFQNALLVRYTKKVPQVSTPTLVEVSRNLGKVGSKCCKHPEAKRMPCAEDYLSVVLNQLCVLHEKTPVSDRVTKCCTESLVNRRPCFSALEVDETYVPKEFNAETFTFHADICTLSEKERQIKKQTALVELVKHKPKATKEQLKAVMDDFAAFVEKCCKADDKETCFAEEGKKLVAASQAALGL
Sequence of Cytochrome P450 3A4 (P08684 whole entry): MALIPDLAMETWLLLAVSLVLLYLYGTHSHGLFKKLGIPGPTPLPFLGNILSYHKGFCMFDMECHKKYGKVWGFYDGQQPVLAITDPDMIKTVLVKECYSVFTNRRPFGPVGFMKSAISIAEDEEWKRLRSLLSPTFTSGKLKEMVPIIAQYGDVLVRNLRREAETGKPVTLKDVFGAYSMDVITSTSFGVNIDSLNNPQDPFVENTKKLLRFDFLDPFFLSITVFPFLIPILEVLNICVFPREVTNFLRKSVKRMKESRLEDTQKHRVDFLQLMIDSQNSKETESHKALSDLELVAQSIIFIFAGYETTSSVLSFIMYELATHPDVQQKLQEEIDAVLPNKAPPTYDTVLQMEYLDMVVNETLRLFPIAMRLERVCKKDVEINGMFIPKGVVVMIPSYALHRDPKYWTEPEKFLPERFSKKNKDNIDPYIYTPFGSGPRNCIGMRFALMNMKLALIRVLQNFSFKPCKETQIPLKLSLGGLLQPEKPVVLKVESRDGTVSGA
Sequence of Voltage-gated inwardly rectifying potassium channel KCNH2 (Q12809 whole entry): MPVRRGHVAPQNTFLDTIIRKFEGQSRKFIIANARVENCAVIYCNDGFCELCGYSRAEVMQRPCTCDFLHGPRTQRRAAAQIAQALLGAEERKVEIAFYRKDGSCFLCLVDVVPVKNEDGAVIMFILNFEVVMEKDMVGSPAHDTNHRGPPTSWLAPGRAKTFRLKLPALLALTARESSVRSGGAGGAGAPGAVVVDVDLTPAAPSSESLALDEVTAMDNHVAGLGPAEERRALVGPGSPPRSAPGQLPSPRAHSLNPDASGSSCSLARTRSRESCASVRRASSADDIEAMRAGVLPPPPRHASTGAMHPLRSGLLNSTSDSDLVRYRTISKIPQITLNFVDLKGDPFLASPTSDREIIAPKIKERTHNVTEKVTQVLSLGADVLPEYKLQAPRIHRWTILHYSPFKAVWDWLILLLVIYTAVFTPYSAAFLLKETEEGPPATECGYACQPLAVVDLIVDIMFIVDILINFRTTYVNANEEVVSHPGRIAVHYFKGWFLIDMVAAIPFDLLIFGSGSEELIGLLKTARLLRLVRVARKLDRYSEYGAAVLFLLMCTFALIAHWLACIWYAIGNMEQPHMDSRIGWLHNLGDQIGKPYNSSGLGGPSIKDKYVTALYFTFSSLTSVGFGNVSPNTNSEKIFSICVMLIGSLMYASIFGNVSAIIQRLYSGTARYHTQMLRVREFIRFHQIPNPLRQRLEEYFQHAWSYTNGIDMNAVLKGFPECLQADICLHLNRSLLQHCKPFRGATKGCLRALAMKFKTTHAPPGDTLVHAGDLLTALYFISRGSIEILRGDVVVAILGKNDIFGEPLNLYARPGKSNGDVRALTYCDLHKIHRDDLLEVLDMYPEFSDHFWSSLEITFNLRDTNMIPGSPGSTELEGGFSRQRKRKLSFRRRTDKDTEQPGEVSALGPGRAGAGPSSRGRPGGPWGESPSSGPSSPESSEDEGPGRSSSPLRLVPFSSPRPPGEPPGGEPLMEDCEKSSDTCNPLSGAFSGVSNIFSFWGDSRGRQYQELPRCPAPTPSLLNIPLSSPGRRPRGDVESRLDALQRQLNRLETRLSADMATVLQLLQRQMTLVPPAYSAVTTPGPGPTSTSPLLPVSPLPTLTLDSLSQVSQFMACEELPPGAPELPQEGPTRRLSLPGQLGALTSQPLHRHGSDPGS

As for `Cn1nc2c(=O)n(C3CC3)cnc2c1[C@](O)(c1cnc(C(F)(F)F)c(Cl)c1)C(F)(F)F`, the outcome in series [1] and in [3] was Active. Besides, the IC50 (in general, the midpoint of a concentration-inhibition curve) in series [2] is 0.015 µM; in [13], > 20 µM; in [21] it was > 20 µM. For the same compound, the outcome in series [4] and in series [20] was inactive. Further, the TDI entry in series [5], in series [11], in [17] and in [19] was “Not_active” each time. The PPB in [6] is 97.2%; in [14] it was 98.9%. In series [7], the Fa at 72 h is 100%. Also, the fraction unbound in series [8] is 0.514. In series [9], the F was > 89%. The figures for the EC50 in series [10] and in series [16] were ~50 µM and 0.001 µM, respectively. For the same compound, the CC50 – broadly, the concentration that lowers cell viability or growth by half – in [12] was > 20 µM. The solubility kinetic at 0.5 h in [15] is 80 µM (≈ 37.4 µg/mL). The “intrinsic clearance (CLint)” value in [18] was < 3 µL/min/mg.
